One experiment addresses T1, Akt1 (Homo sapiens, UniProt P31749).
T1 construct: purchased 32-021
The experiment is described as follows: AKT1/PKBα KinEASE FP Fluorescein Green Assay (fluorescence polarization kinase kit). It counts as biochemical. The settings on record: 1 h reaction, read-out: Inhibitory activities against Akt1 (IC50). The method in brief: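 FP competition kinase assay: compounds (50 μM stock) with STK Substrate 3 and ATP, 1 h reaction at room temperature; stopped with stop/antibody mix, 4 h at room temperature, then polarization read. Inhibition derived from polarization values; IC50 calculated; triplicate wells.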
Background: Fluorescence polarisation rises when a labelled molecule tumbles more slowly, as on binding a larger partner.

The test system of experiment [1] is human colon cancer cell strain HCT-116. The experiment is described as follows: MTT assay, inhibition of tumor cell growth in vitro, 72 h. It counts as cell-based. The note with it: Homo sapiens, HCT-116, MTT, read-out: Antitumor proliferative activities of tumor cell (IC50, μM) HCT-116 (converted). The method in brief: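 Cells in RPMI 1640 with FBS, 4000 cells/well, exposed 72 h at 37 °C, 5% CO2 to final 50, 10, 2, 0.4 and 0.08 μM; 1% DMSO blank. MTT OD gives % inhibition versus control; IC50 derived by Bliss method.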
In general terms: Tetrazolium assays rely on reduction of a dye to a coloured formazan, in cell work by metabolically active cells.

The subject of experiment [2] is Human ovarian cancer cell strain OVCAR-8. The description is as above. The settings on record: Homo sapiens, OVCAR-8, MTT, read-out: Antitumor proliferative activities of tumor cell (IC50, μM) OVCAR-8. In kind it is cell-based. The method in brief:
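OVCAR8 cells in RPMI 1640 plus FBS were seeded at 4000 cells/well and exposed for 72 h at 37 °C to compound at 50, 10, 2, 0.4 and 0.08 μM final, with 1% DMSO as blank. Inhibition was calculated from OD relative to control, and IC50 was derived by the Bliss method.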

T1 sequence (P31749 whole entry): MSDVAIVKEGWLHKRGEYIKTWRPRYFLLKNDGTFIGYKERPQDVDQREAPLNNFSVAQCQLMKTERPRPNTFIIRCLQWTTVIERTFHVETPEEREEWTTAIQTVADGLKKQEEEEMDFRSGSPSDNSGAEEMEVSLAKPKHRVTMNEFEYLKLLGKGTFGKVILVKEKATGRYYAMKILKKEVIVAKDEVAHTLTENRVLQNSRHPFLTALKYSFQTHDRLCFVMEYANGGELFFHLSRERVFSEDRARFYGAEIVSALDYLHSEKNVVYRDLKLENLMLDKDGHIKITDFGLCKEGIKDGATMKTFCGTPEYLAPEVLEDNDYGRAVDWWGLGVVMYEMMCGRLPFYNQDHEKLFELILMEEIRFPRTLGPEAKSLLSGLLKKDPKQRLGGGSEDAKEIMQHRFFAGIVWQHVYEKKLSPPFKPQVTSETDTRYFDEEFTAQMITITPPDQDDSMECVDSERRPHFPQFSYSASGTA

By IC50 is commonly meant the midpoint of a concentration-inhibition curve. Take `Cn1ncc(Cl)c1-c1ccc(C(=O)N[C@@H]2CNCC[C@H]2c2cccc(F)c2)cc1Cl` [Compound 86, 3-chloro-4-(4-chloro-1-methyl-1H-pyrazol-5-yl)-N-((3S,4S)-4-(3-fluorophenyl)piperidin-3-yl)benzamide]: the results for the IC50 (at Akt1; in experiment [1]; in experiment [2]) were 14 nM, 1.47 µM and 1.26 µM, respectively.

Regarding `Cn1ncc(Cl)c1-c1ccc(C(=O)N[C@@H]2CNCC[C@H]2c2ccc(F)c(F)c2)cc1-c1ccoc1` [Compound 87, 4-(4-chloro-1-methyl-1H-pyrazol-5-yl)-N-((3S,4S)-4-(3,4-difluorophenyl)piperidin-3-yl)-3-(furan-3-yl)benzamide], the half-inhibitory concentration (IC50) was 10 nM on Akt1, 5.63 µM in experiment [1] and 2.43 µM in experiment [2].

`Cc1occc1-c1cc(-c2c(Cl)cnn2C)ccc1C(=O)N[C@@H]1CNCC[C@H]1c1cccc(F)c1` [Compound 88, 4-(4-chloro-1-methyl-1H-pyrazol-5-yl)-N-((3S,4S)-4-(3-fluorophenyl)piperidin-3-yl)-2-(2-methylfuran-3-yl)benzamide]: the IC50 was 8 nM at Akt1, 4.21 µM in experiment [1] and 1.07 µM in experiment [2].

For `Cn1ncc(Cl)c1-c1ccc(C(=O)N[C@@H]2CNCC[C@H]2c2c[nH]c3ccccc23)cc1Cl` [Compound 89, N-((3S,4S)-4-(1H-indol-3-yl)piperidin-3-yl)-3-chloro-4-(4-chloro-1-methyl-1H-pyrazol-5-yl)benzamide], the IC50 at Akt1 is 11 nM; in experiment [1] it was 1.02 µM; in experiment [2], 5.69 µM.

As to `Cn1ncc(Cl)c1-c1ccc(C(=O)N[C@@H]2CNCC[C@H]2c2ccc(F)c(F)c2)c(-c2csc(Cl)c2)c1` [Compound 90, 4-(4-chloro-1-methyl-1H-pyrazol-5-yl)-2-(5-chlorothiophene-3-yl)-N-((3S, 4S)-4-(3,4-difluorophenyl)piperidin-3-yl)benzamide], the figures for the IC50 (on Akt1; in experiment [1]; in experiment [2]) were 14 nM, 0.69 µM and 1.83 µM, respectively.

As for `Cn1ncc(Cl)c1-c1ccc(C(=O)N[C@@H]2CNCC[C@H]2c2cccc3[nH]ccc23)cc1Cl` [Compound 91, N-((3S,4S)-4-(1H-indol-4-yl)piperidin-3-yl)-3-chloro-4-(4-chloro-1-methyl-1H-pyrazol-5-yl)benzamide], the IC50 at Akt1 was 5 nM; in experiment [1], 0.34 µM; in experiment [2], 2.91 µM.

As for `Cn1ncc(Cl)c1-c1cnc(C(=O)N[C@@H]2CNCC[C@H]2c2cccc(F)c2)cc1Cl` [Compound 92, 4-chloro-5-(4-chloro-1-methyl-1H-pyrazol-5-yl)-N-((3S,4S)-4-(3-fluorophenyl)piperidin-3-yl)picolinamide], the 50% inhibitory concentration (IC50) at Akt1 is 16 nM; in experiment [1], 1.25 µM; in experiment [2], 1.07 µM.

As for `Cn1ncc(Cl)c1-c1cnc(C(=O)N[C@@H]2CNCC[C@H]2c2ccc(F)c(F)c2)nc1` [Compound 93, 5-(4-chloro-1-methyl-1H-pyrazol-5-yl)-N-((3S,4S)-4-(3,4-difluorophenyl)piperidin-3-yl)pyrimidine-2-formamide], the half-inhibitory concentration (IC50) at Akt1 was 8 nM; in experiment [1] it was 5.82 µM; in experiment [2], 7.89 µM.

`Cc1cc(C(=O)N[C@@H]2CNCC[C@H]2c2ccc(F)c(F)c2)ncc1-c1c(Cl)cnn1C` [Compound 94, 5-(4-chloro-1-methyl-1H-pyrazol-5-yl)-N-((3S,4S)-4-(3,4-difluorophenyl)piperidin-3-yl)-4-methylpicolinamide]: the IC50 on Akt1 is 7 nM; in experiment [1] it was 0.89 µM; in experiment [2] it was 1.22 µM.

`Cn1ncc(Cl)c1-c1cnc(C(=O)N[C@@H]2CNCC[C@H]2c2ccc(Cl)c(C(F)(F)F)c2)cc1Cl` [Compound 95, 4-chloro-5-(4-chloro-1-methyl-1H-pyrazol-5-yl)-N-((3S,4S)-4-(4-chloro-3-(trifluoromethyl)phenyl)piperidin-3-yl)picolinamide]: the IC50 is 17 nM on Akt1, 0.95 µM in experiment [1] and 0.98 µM in experiment [2].

In the case of `Cn1ncc(Cl)c1-c1ccc(C(=O)N[C@@H]2CNCC[C@H]2c2ccc(Cl)c(C(F)(F)F)c2)nc1` [Compound 96, 5-(4-chloro-1-methyl-1H-pyrazol-5-yl)-N-((3S,4S)-4-(4-chloro-3-(trifluoromethyl)phenyl)piperidin-3-yl)picolinamide], the IC50 on Akt1 is 9 nM; in experiment [1], 0.78 µM; in experiment [2], 2.41 µM.

With `Cn1ncc(Cl)c1-c1cnc(C(=O)N[C@@H]2CNCC[C@H]2c2ccc(F)c(F)c2)c(F)c1` [Compound 97, 5-(4-chloro-1-methyl-1H-pyrazol-5-yl)-N-((3S,4S)-4-(3,4-difluorophenyl)piperidin-3-yl)-3-fluoropicolinamide], the IC50 on Akt1 is 8 nM; in experiment [1], 4.14 µM; in experiment [2], 4.89 µM.

Take `CNC(=O)CC1C[C@@H](c2ccc(F)c(F)c2)[C@H](NC(=O)c2ccc(-c3c(Cl)cnn3C)cc2)CN1` (stereo partly drawn) [Compound 98]: the values for the IC50 (on Akt1; in experiment [1]; in experiment [2]) were 4 nM, 0.92 µM and 1.82 µM, respectively.

For `CNC(=O)CC1C[C@@H](c2ccc(F)c(F)c2)[C@H](NC(=O)c2ccc(-c3c(Cl)cnn3C)c(Cl)c2)CN1` (stereo partly drawn) [Compound 99, 3-chloro-4-(4-chloro-1-methyl-1H-pyrazol-5-yl)-N-((3S,4S)-4-(3,4-difluorophenyl)-6-(2-(methylamido)-2-oxoethyl)piperidin-3-yl)benzamide], the IC50 on Akt1 is 7 nM; in experiment [1], 1.21 µM; in experiment [2] it was 3.38 µM.

On to `Cn1ncc(Cl)c1-c1ccc(C(=O)N[C@@H]2CNC(CCO)C[C@H]2c2ccc(F)c(F)c2)cc1` (stereo partly drawn) [Compound 100], for which the figures for the IC50 (at Akt1; in experiment [1]; in experiment [2]) were 9 nM, 0.42 µM and 1.12 µM, respectively.

Turning to `CNS(=O)(=O)CC1C[C@@H](c2ccc(F)c(F)c2)[C@H](NC(=O)c2ccc(-c3c(Cl)cnn3C)c(F)c2)CN1` (stereo partly drawn) [Compound 101], the IC50 is 7 nM at Akt1, 2.11 µM in experiment [1] and 0.43 µM in experiment [2].

As to `Cc1cc(C(=O)N[C@@H]2CNC(CCN3CCCCC3)C[C@H]2c2ccc(F)c(F)c2)ccc1-c1c(Cl)cnn1C` (stereo partly drawn) [Compound 102, 4-(4-chloro-1-methyl-1H-pyrazol-5-yl)-N-((3S,4S)-4-(3,4-difluorophenyl)-6-(2-(piperidin-1-yl)ethyl)piperidin-3-yl)-3-methylbenzamide], the IC50 on Akt1 is 8 nM; in experiment [1], 0.8 µM; in experiment [2] it was 0.34 µM.

As to `Cn1ncc(Cl)c1-c1ccc(C(=O)N[C@@H]2CNC(CCNS(C)(=O)=O)C[C@H]2c2cccc(F)c2)cc1Cl` (stereo partly drawn) [Compound 103, 3-chloro-4-(4-chloro-1-methyl-1H-pyrazol-5-yl)-N-((3S,4S)-4-(3-fluorophenyl)-6-(2-(methylsulfonamido)ethyl)piperidin-3-yl)benzamide], the figures for the IC50 (at Akt1; in experiment [1]; in experiment [2]) were 5 nM, 2.81 µM and 1.11 µM, respectively.

With `CNC(=O)CC1C[C@@H](c2ccc(F)c(F)c2)[C@H](NC(=O)c2cc(-c3c(Cl)cnn3C)c(Cl)s2)CN1` (stereo partly drawn) [Compound 104, 5-chloro-4-(4-chloro-1-methyl-1H-pyrazol-5-yl)-N-((3S,4S)-4-(3,4-difluorophenyl)-6-(2-(methylamido)-2-oxoethyl)piperidin-3-yl)thiophene-2-formamide], the results for the IC50 (on Akt1; in experiment [1]; in experiment [2]) were 3 nM, 2.43 µM and 1.71 µM, respectively.

Take `CNC(=O)CC1C[C@@H](c2ccc(F)c(F)c2)[C@H](NC(=O)c2cc(-c3c(Cl)cnn3C)c(Cl)o2)CN1` (stereo partly drawn) [Compound 105, 5-chloro-4-(4-chloro-1-methyl-1H-pyrazol-5-yl)-N-((3S,4S)-4-(3,4-difluorophenyl)-6-(2-(methylamido)-2-oxoethyl)piperidin-3-yl)furan-2-formamide]: the IC50 at Akt1 is 51 nM; in experiment [1], 0.56 µM; in experiment [2], 1.94 µM.

On to `C=CCC1C[C@@H](c2ccc(Cl)c(Cl)c2)[C@H](NC(=O)c2cc(-c3c(Cl)cnn3C)c(Cl)o2)CN1` (stereo partly drawn) [Compound 106, N-((3S,4S)-6-allyl-4-(3,4-dichlorophenyl)piperidin-3-yl)-5-chloro-4-(4-chloro-1-methyl-1H-pyrazol-5-yl)furan-2-formamide], for which the IC50 was 2 nM on Akt1, 2.51 µM in experiment [1] and 1.02 µM in experiment [2].

Take `CN(C)CCC1C[C@@H](c2ccc(Cl)c(Cl)c2)[C@H](NC(=O)c2cc(-c3c(Cl)cnn3C)c(Cl)o2)CN1` (stereo partly drawn) [Compound 107, 5-chloro-4-(4-chloro-1-methyl-1H-pyrazol-5-yl)-N-((3S,4S)-4-(3,4-dichlorophenyl)-6-(2-(dimethylamino)ethyl)piperidin-3-yl)furan-2-formamide]: the IC50 at Akt1 is 14 nM; in experiment [1], 1.08 µM; in experiment [2], 1.01 µM.

Regarding `Cn1ncc(Cl)c1-c1cc(C(=O)N[C@@H]2CNC(CCN3CCCCC3)C[C@H]2c2ccc(Cl)c(Cl)c2)oc1Cl` (stereo partly drawn) [Compound 108, 5-chloro-4-(4-chloro-1-methyl-1H-pyrazol-5-yl)-N-((3S,4S)-4-(3,4-dichlorophenyl)-6-(2-(piperidin-1-yl)ethyl)piperidin-3-yl)furan-2-formamide], the results for the IC50 (at Akt1; in experiment [1]; in experiment [2]) were 9 nM, 0.57 µM and 2.04 µM, respectively.

Values taken from US10233180B2, “Substituted nitrogen-containing heterocyclic derivatives, pharmaceutical compositions comprising the same and applications of antitumor thereof” (ZHEJIANG UNIVERSITY, priority 2014, dated 2019).
